Data taken from ChEMBL document CHEMBL1201862, “PubChem BioAssay data set” (2004).
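48-hour exposure; five concentrations; linearly interpolated endpoints. GI50 = concentration required for 50% inhibition of growth.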 Activity calls are given as the source filed them. Cut-off read from the data, not from the text of the source: active = GI50 up to about 1.1 µM and inactive = higher.

Assays:
Assay in all cases: growth of human tumour cells (NCI), 48 h
A549 = tested on: A549
ACHN = tested on: ACHN
COLO 205 = tested on: COLO 205
EKVX = tested on: EKVX
HCC 2998 = tested on: HCC 2998
IGROV-1 = tested on: IGROV-1
M14 = tested on: M14
MCF7 = tested on: MCF7
MDA-MB-231 = tested on: MDA-MB-231
MDA-N = tested on: MDA-N
OVCAR-3 = tested on: OVCAR-3
RPMI-8226 = tested on: RPMI-8226
RXF 393 = tested on: RXF 393
SF-539 = tested on: SF-539
SK-MEL-28 = tested on: SK-MEL-28
SK-MEL-5 = tested on: SK-MEL-5
SN12C = tested on: SN12C
SNB-75 = tested on: SNB-75
SW-620 = tested on: SW-620
UACC-62 = tested on: UACC-62

SMILES | GI50 (A549) | GI50 (ACHN) | GI50 (COLO 205) | GI50 (EKVX) | GI50 (HCC 2998) | GI50 (IGROV-1) | GI50 (M14) | GI50 (MCF7) | GI50 (MDA-MB-231) | GI50 (MDA-N) | GI50 (OVCAR-3) | GI50 (RPMI-8226) | GI50 (RXF 393) | GI50 (SF-539) | GI50 (SK-MEL-28) | GI50 (SK-MEL-5) | GI50 (SN12C) | GI50 (SNB-75) | GI50 (SW-620) | GI50 (UACC-62)
O=c1oc2ccc([N+](=O)[O-])cc2c(Nc2ccc3c(c2)S(=O)(=O)c2ccccc2O3)c1[N+](=O)[O-] | > 100 µM (inactive) | > 100 µM (inactive) | > 100 µM (inactive) | > 100 µM (inactive) | 26.5 µM (inactive) | > 100 µM (inactive) | 42.9 µM (inactive) | > 100 µM (inactive) | 49.7 µM (inactive) | 68.1 µM (inactive) | 69.3 µM (inactive) | 39 µM (inactive) | 45.4 µM (inactive) | 46.8 µM (inactive) | 46.3 µM (inactive) | 81.8 µM (inactive) | 80.2 µM (inactive) | 73.6 µM (inactive) | 97.7 µM (inactive) | 43.8 µM (inactive)
CC(C)SC1SCC2C(=O)N(C)C3(CC3C)C(=O)OCC(NC(=O)c3nc4ccccc4cc3O)C(=O)NC(C)C(=O)N(C)C1C(=O)N(C)C1(CC1C)C(=O)OCC(NC(=O)c1nc3ccccc3cc1O)C(=O)NC(C)C(=O)N2C (stereo not given) | < 0.0001 µM (active) | < 0.0001 µM (active) | < 0.0001 µM (active) | 0.00298 µM (active) | < 0.0001 µM (active) | < 0.0001 µM (active) | < 0.0001 µM (active) | < 0.0001 µM (active) | < 0.0001 µM (active) | < 0.0001 µM (active) | < 0.0001 µM (active) | < 0.0001 µM (active) | < 0.0001 µM (active) | < 0.0001 µM (active) | < 0.0001 µM (active) | < 0.0001 µM (active) | < 0.0001 µM (active) | < 0.0001 µM (active) | < 0.0001 µM (active) | < 0.0001 µM (active)
C=C(CCC/C(C)=C/C=C/[C@@H](C)CCCc1ccoc1)C[C@@H]1OC(=O)[C@H](C)[C@@H]1O | 7.29 µM (inactive) | 7.59 µM (inactive) | 8.43 µM (inactive) | 9.2 µM (inactive) | 11.6 µM (inactive) | 10.7 µM (inactive) | 9.33 µM (inactive) | 7.89 µM (inactive) | 7.48 µM (inactive) | 9.73 µM (inactive) | 7.13 µM (inactive) | 12.8 µM (inactive) | 10.3 µM (inactive) | 8.17 µM (inactive) | 10.1 µM (inactive) | 6.3 µM (inactive) | 9.68 µM (inactive) | 9.77 µM (inactive) | 11.4 µM (inactive) | 5.27 µM (inactive)
CC(C)(C)OC(=O)N/C=C1\C(=O)Oc2ccccc2C1=O | 39.6 µM (inactive) | 20.2 µM (inactive) | 51.1 µM (inactive) | 47.6 µM (inactive) | 54 µM (inactive) | 42.5 µM (inactive) | 35.6 µM (inactive) | 70.8 µM (inactive) | 21.8 µM (inactive) | 34.5 µM (inactive) | 29.7 µM (inactive) | > 100 µM (inactive) | 23.2 µM (inactive) | 14.7 µM (inactive) | 45.1 µM (inactive) | 26.1 µM (inactive) | 24.5 µM (inactive) | 23.5 µM (inactive) | 38.5 µM (inactive) | 38.4 µM (inactive)
O=C(CBr)NCCc1c[nH]c2ccccc12 | 2.14 µM (inactive) | 1.73 µM (inactive) | 1.65 µM (inactive) | 1.79 µM (inactive) | 9.95 µM (inactive) | 1.83 µM (inactive) | 1.66 µM (inactive) | 2 µM (inactive) | 2.23 µM (inactive) | 2.02 µM (inactive) | 1.92 µM (inactive) | 1.97 µM (inactive) | 1.09 µM (active) | 1.81 µM (inactive) | 3.49 µM (inactive) | 1.17 µM (inactive) | 1.45 µM (inactive) | 1.65 µM (inactive) | 2.03 µM (inactive) | 1.75 µM (inactive)
